Calls of active or inactive are those of the source.
Tests used:
[1] = biological target: T1, Lectin (Erythrina crista-galli) (UniProt P83410); experiment: Binding affinity to Erythrina cristagalli lectin assessed as compound-protein complex formation incubated for 30 mins followed by UV irradiation by SDS-PAGE based photoaffinity labeling in presence of lactose
T1 sequence (whole entry): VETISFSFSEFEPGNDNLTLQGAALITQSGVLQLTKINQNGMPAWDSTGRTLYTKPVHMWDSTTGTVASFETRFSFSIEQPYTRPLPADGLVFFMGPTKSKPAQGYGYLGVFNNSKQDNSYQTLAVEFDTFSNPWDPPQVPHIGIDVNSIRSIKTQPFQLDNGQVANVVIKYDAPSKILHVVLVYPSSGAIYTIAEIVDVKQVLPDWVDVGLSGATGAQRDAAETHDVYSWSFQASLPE

Lectin (Glycine max) [2] = biological target: Lectin (Glycine max) (UniProt P05046); experiment: Binding affinity to soybean lectin assessed as compound-protein complex formation incubated for 30 mins followed by UV irradiation by SDS-PAGE based photoaffinity labeling
Lectin (Glycine max) [3] = biological target: Lectin (Glycine max) (UniProt P05046); experiment: Binding affinity to soybean lectin assessed as compound-protein complex formation incubated for 30 mins followed by UV irradiation by SDS-PAGE based photoaffinity labeling in presence of lactose
[4] = biological target: T1, Lectin (Erythrina crista-galli); experiment: Binding affinity to Erythrina cristagalli lectin assessed as compound-protein complex formation incubated for 30 mins followed by UV irradiation by SDS-PAGE based photoaffinity labeling

Measured: Activity

Lectin (Glycine max), sequence (P05046 whole entry): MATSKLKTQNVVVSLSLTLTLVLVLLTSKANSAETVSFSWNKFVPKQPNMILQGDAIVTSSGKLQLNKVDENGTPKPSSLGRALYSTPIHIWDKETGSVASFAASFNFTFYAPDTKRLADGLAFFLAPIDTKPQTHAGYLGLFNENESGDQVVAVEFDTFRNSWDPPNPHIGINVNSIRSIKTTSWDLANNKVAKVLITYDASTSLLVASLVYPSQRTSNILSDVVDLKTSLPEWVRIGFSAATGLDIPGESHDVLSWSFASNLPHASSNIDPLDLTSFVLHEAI

O=C(CCCC[C@@H]1SC[C@H]2NC(=O)N[C@@H]12)NCCOCCOCCOc1cc(C2(C(F)(F)F)N=N2)ccc1CO/N=C/[C@@H](O)[C@@H](O)[C@H](O[C@@H]1O[C@H](CO)[C@H](O)[C@H](O)[C@H]1O)[C@H](O)CO
active: all assays above

From ChEMBL document CHEMBL1641507, “The effect of structural differences in the reducing terminus of sugars on the binding affinity of carbohydrates and proteins analyzed using photoaffinity labeling” (Bioorg Med Chem, 2011)
